Data taken from article PMC8304761, “Development of an Androgen Receptor Inhibitor Targeting the N-Terminal Domain of Androgen Receptor for Treatment of Castration Resistant Prostate Cancer” (Cancers, 2021).
pIC50: −log10 of the molar value. Read-outs that look alike come from different tables or passages of the source.

Experiments:
full-length AR = target: T1, full-length AR (Homo sapiens, UniProt P10275, T878A); experiment: AR fluorescent (eGFP) reporter assay in LN-ARR2PB-eGFP LNCaP cells; assay type: cell-based
T1 construct: against full length AR using an AR-eGFP transcription assay in LNCaP cells; endogenous in cells; host or cells: LNCaP (LN-ARR2PB-eGFP reporter line for A1; parental LNCaP for RIME)
T1 sequence (P10275 1-920 T878A): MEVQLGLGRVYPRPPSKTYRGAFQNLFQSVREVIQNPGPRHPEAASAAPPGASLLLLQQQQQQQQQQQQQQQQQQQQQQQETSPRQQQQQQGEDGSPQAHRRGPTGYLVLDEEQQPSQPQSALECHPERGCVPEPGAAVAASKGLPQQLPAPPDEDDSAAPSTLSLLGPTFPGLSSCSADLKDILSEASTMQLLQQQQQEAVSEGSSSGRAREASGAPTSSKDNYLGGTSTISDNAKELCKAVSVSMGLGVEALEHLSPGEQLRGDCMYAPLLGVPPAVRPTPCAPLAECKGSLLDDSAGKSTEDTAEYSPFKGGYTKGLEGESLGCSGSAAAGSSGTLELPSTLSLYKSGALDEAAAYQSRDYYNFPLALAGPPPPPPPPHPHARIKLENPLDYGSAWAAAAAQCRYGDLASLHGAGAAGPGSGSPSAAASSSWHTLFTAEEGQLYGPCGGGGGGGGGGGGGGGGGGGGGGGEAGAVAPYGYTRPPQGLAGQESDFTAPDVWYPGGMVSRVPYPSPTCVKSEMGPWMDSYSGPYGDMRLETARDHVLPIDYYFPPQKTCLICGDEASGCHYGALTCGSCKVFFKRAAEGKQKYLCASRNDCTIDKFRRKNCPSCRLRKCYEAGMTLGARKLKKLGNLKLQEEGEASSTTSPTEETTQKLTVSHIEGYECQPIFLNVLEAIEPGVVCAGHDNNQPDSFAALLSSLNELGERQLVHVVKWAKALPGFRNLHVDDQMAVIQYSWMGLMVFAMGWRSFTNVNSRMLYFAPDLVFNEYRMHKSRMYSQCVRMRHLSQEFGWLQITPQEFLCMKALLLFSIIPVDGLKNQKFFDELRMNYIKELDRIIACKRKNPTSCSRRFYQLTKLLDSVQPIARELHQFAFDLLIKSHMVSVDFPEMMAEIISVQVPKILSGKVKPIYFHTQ
Method: AR fluorescent reporter assay: Stably transfected eGFP-expressing LNCaP human prostate cancer cells (LN-ARR2PB-eGFP) containing an androgen-responsive probasin-derived promoter (ARR2PB) were assayed, as previously described.
Next, we tested the activity of VPC-220010 against full length AR using an AR-eGFP transcription assay in LNCaP cells. […] PSA is an AR-regulated serine protease and is widely used as a biomarker for PCa.

ARV7 = target: T2, ARV7 (Homo sapiens, UniProt P10275)
T2 sequence (P10275 1-644 isoform P10275-3): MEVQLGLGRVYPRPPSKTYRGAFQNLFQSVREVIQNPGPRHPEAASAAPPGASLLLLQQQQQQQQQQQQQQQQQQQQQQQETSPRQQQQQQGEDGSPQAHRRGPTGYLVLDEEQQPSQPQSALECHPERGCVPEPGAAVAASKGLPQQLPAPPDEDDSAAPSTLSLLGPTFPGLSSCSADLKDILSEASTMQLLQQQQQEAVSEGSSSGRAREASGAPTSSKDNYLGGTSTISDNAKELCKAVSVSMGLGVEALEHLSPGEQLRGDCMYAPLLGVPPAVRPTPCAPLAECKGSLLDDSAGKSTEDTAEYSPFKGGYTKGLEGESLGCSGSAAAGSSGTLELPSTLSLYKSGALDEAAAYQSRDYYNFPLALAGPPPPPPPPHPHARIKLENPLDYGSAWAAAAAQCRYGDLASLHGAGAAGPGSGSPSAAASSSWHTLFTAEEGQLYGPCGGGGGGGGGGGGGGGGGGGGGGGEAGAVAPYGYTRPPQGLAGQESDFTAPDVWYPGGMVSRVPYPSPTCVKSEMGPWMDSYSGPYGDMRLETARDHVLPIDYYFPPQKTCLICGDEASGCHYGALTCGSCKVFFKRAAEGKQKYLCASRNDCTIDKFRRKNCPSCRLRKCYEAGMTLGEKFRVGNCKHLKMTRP
Source text: The newly synthesized compounds were screened initially for their ability to inhibit ARV7 transcriptional activity using a cell based ARV7 transcriptional assay.

[1] = tested on: prostate specific antigen (PSA); experiment: Secreted PSA levels in LNCaP cells; assay type: cell-based; conditions: Homo sapiens, LNCaP; Table 1; read-out: PSA IC50
Source text: Next, we tested the activity of VPC-220010 against full length AR using an AR-eGFP transcription assay in LNCaP cells. […] To further validate VPC-220010 as an AR inhibitor, we evaluated its ability to reduce the production of endogenous prostate specific antigen (PSA) in PCa cell lines. PSA is an AR-regulated serine protease and is widely used as a biomarker for PCa.

Microsomal stability = assay type: in vitro ADME, human
Source text: However, further medicinal chemistry optimization is needed to make this scaffold stable enough to proceed to potential preclinical studies. […] Study of VPC-220057 scaffold could lead to a VPC-220010- and VPC-220057-derivative that combines their best potency and stability. The corresponding efforts are under way.

LNCaP cells = experiment: Proliferation assay (PrestoBlue), LNCaP; assay type: cell-based; conditions: Homo sapiens, 72 h, R1881, Figure 2C, read-out: IC50, viability of LNCaP cells
Method: (§1) Proliferation assay: LNCaP, 22Rv1 and PC3 cells were plated at 3000 cells per well in RPMI1640 containing 5% CSS in a 96-well plate, treated with 0.1 nm R1881 (a synthetic androgen) and test compounds (0–25 μM) for 72 h. Cell proliferation was determined using the PrestoBlue^TM cell proliferation assay following incubation with the compound […] over 72 h. In brief, 30 μL of the PrestoBlue^TM reagent was added to cells in each well of the 96-well plate containing 200 μL of media and incubated for 60 min at 37 °C in 5% CO2. The production of […]. Fluorescence measurement was read on a TECAN F200.
(§2) We then evaluated the effect of VPC-220010 on the proliferation of androgen-dependent LNCaP and ARV7-dependent 22Rv1 cells.

22Rv1 cells = experiment: Proliferation assay (PrestoBlue), 22Rv1; assay type: cell-based; conditions: Homo sapiens, 72 h, Figure 2D, read-out: IC50, viability of 22Rv1 cells
Method: as §1, §2

[2] = target: T3, glucocorticoid receptor (GR) (Homo sapiens, UniProt P04150); experiment: Luciferase reporter transcription assay in PC3 cells, GR; conditions: dexamethasone stimulated; 20 uM; Figure 4
T3 sequence (P04150 1-777): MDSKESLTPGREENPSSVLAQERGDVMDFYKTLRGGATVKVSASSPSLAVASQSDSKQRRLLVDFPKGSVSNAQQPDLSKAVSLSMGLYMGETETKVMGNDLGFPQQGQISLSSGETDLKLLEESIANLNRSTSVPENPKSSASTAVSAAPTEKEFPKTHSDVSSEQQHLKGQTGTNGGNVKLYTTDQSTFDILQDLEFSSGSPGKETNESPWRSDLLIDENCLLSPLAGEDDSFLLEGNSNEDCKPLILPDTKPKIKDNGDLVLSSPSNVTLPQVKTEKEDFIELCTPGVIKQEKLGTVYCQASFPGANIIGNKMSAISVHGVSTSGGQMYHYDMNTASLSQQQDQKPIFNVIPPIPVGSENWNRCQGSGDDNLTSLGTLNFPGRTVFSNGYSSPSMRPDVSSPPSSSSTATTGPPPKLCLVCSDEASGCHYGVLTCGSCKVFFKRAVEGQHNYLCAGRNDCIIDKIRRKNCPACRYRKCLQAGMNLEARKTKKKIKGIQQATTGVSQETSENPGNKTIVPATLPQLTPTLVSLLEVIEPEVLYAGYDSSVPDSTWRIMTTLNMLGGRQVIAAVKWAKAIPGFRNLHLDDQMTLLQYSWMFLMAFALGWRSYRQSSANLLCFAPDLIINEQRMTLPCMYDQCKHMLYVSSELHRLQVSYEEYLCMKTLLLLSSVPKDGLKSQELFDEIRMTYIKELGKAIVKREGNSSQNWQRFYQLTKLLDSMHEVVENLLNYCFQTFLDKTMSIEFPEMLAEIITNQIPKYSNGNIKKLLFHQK

[3] = target: T4, progesterone receptor (PR) (Homo sapiens, UniProt P06401); experiment: Luciferase reporter transcription assay in PC3 cells, PR; conditions: progesterone stimulated; 20 uM; Figure 4
T4 sequence (P06401 1-933): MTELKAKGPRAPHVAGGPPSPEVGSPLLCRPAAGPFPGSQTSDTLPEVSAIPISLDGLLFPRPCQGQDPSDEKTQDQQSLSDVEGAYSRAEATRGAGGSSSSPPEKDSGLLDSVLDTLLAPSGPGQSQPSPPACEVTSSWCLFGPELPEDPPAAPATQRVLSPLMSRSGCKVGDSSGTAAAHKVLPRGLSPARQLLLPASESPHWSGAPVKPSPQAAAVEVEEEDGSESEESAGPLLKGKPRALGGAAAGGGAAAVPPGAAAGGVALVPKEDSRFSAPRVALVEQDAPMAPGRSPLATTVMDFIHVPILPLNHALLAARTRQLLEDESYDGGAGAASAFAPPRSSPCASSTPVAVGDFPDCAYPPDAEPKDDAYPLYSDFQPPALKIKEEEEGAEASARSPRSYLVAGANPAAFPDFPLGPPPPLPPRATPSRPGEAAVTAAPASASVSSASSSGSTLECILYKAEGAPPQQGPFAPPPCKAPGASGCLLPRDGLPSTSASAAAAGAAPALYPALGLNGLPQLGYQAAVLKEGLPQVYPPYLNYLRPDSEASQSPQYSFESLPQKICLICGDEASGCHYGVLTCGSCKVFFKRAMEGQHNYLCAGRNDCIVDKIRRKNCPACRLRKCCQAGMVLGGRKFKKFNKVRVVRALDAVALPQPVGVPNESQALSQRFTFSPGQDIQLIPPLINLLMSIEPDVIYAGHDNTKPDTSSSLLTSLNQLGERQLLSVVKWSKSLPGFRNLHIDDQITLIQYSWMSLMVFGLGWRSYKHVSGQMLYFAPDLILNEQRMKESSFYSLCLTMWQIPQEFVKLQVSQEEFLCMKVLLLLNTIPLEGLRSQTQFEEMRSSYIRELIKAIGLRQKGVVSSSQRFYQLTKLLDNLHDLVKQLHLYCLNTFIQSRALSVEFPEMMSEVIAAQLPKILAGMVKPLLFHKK

| SMILES | pIC50 (full-length AR; Table 1, read-out: eGFP IC50) | pIC50 (ARV7) | activity against ARV7 (in words) (ARV7) | pIC50 [1] | half-life (Microsomal stability; human, microsomes) | also measured |
| --- | --- | --- | --- | --- | --- | --- |
| O[C@H](CCl)COc1cccc2c(OC[C@H](O)CCl)cccc12 [SS-220010] | 6.15 | 5.22 | no difference in potency | 6.22 | 12 min | – |
| O=[N+]([O-])c1ccc2c(OCC(O)CCl)cccc2c1OCC(O)CCl (stereo not drawn) [VPC-220054] | 5.30 | 5.52 | – | 5.30 | – | – |
| OC(CCl)COc1c(Br)ccc2c(OCC(O)CCl)c(Br)ccc12 (stereo not drawn) [VPC-220027] | 5.52 | 5.40 | – | 5.40 | – | – |
| OC(CCl)CNc1cccc2c(NCC(O)CCl)cccc12 (stereo not drawn) [VPC-2055] | – | 5.06 | active against this truncated variant | – | – | pIC50 (full-length AR; LNCaP cells, read-out: IC50, full length AR, AR-eGFP transcription assay): 6.00; pIC50 (LNCaP cells): 4.93; pIC50 (22Rv1 cells): < 4.30 |
| O[C@@H](CCl)COc1cccc2c(OC[C@@H](O)CCl)cccc12 [RR-220010] | 6.15 | 5.30 | no difference in potency | 6.15 | 11 min | – |
| OC(CCl)COc1ccc(Br)c2c(OCC(O)CCl)cccc12 (stereo not drawn) [VPC-220062] | 6.30 | 5.52 | – | 6.30 | 36 min | – |
| CC#C[C@]1(O)CC[C@H]2[C@@H]3CCC4=CC(=O)CCC4=C3[C@@H](c3ccc(N(C)C)cc3)C[C@@]21C [mifepristone] | – | – | – | – | – | GR transcriptional reporter activity [2]: inhibited; PR transcriptional reporter activity [3]: inhibited |
| OC(CCl)COc1ccc(Br)c2c(OCC(O)CCl)ccc(Br)c12 (stereo not drawn) [VPC-220028] | 6.40 | 5.52 | – | 6.40 | – | – |
| O=[N+]([O-])c1ccc(OCC(O)CCl)c2c([N+](=O)[O-])ccc(OCC(O)CCl)c12 (stereo not drawn) [VPC-220057] | 5.00 | 5.10 | – | 5.10 | – | fold less potent than VPC-220010 (full-length AR; Table 1): 10 fold; half-life (Microsomal stability; microsomal stability, human microsomes, read-out: T1/2): 462 min |
| OC(CCl)COc1ccc2cc(OCC(O)CCl)ccc2c1 (stereo not drawn) [VPC-220075] | 6.30 | 4.92 | – | 6.30 | 18 min | – |
